The text below walks through data of patent US8759073B2, “Method for effectively controlling harmful organisms in large-scale culture of microalgae” (ENN Science & Technology Development Co., Ltd., priority 2009, dated 2014).

The test system of one data set is Oxyrrhis. The data set is described as follows: Control of Oxyrrhis contamination in microalgae culture, microscope examination. The class given is cell-based, Oxyrrhis sp. From the text:
If the contaminated alga liquid is identified as acid tolerant contamination, pH value is raised up with alkalis in the culture system of the microalgae and maintained for a period of time. The pH value cannot be higher than the maximal tolerable pH of the microalgae. […] In an embodiment, said alkali can be ammonia. In an embodiment, said alkali can be NaOH. In an embodiment, said alkali can be 1M NaOH. Depending on different pH requirements and different culture systems, alkalis with different concentrations can be used according to the agitation condition, as long as the transient pH is not too high to be harmful to microalgae, and dilution of the cell concentration in the culture system (caused by adding too much alkali solution) should also be avoided. […] In an embodiment, the pH of the culture system is adjusted to 11.5-12.0 with 1M NaOH or 1M ammonia. In an embodiment, the pH of the culture system is adjusted to 11.0-11.8 or 8.0-11.0 with 1M NaOH or 1M ammonia. In an embodiment, the pH of the culture system is adjusted to 8.0-11.0, 11.5-12.0 or 11.0-11.8 and maintained for 3 hours.
Microscope examination is always used as one of the bases for determining the growth status in the process of microalgae culture.
(§1) Chlorella sp. (purchased from FACHB collection, Wuhan Aquatic Research Institure, Chinses Academy of Sciences) was cultured in a 320 L bubbling reactor (manufactured by Longfang Jiangchuan plexiglass Co. Ltd., φ300 mm×2 m) out-of-doors under a sunlight film. The culture condition included: a temperature of about 25 °C, a humidity of 60%-80%, and an illumination of 8000-20000 lux. Modified SM (see Table 2) (pH 7.0-9.0 for the normal culture) was used. […] Then, CO2 was aerated to adjust pH to be 7.0-8.0.
(§2) Chlorella sp. (obtained from Jinan University) was cultured in a 320 L bubbling reactor (manufactured by Longfang Jiangchuan plexiglass Co. Ltd., φ300 mm×2 m) out-of-doors under a sunlight film (with a temperature of about 25 °C, a humidity of 60%-80%, and an illumination of 8000-20000 lux). Modified SM medium (see Table 2) was used. When Amoeba, Oxyrrhis and ciliate contaminations were observed is with an oil immersion lens (Nikon fluorescent invert microscope Ti series), pH was adjusted to 11.0-11.8 with 1M NaOH. […] Then, CO2 was aerated continuously to saturation (pH 5.6). […] Then air was sufficiently aerated.
(§3) Chlorococcum sp. (obtained from Qingdao Marine Institute) was cultured in a 60 L glass plate reactor (manufactured by Longfang Jiangchuan plexiglass Co. Ltd., OP=10 cm) under a sunlight film (with a temperature of about 25 °C, a humidity of 60%-80%, and an illumination of 8000-20000 lux) (pH 8.0-9.0 for the normal culture). Modified BG11 medium (see Table 3) was used. […] Then CO2 was aerated and pH was adjusted to 7.0-8.0.
(§4) Chlorococcum sp. (obtained from Qingdao Marine Institute) was cultured in a 60 L glass plate reactor (manufactured by Longfang Jiangchuan plexiglass Co. Ltd., OP=10 cm) under a sunlight film (with a temperature of about 25 °C, a humidity of 60%-80%, and an illumination of 8000-20000 lux) (pH 8.0-9.0 for the normal culture). Modified BG11 medium (see Table 3) was used. […] One hour later, CO2 was aerated to saturation (about pH 5.6) for 24 hour continuously. […] Then air was sufficiently aerated.

The test system of another data set is Chlorella sp. The data set is described as follows: Growth of cultured algae after treatment, 320 L bubbling reactor. The method, then:
(§5) pH of the normally cultured microalgae is adjusted into various ranges. The growth rate of the microalgae is measured and their appearance is observed under a microscope.
as §1
Chlorella sp. (purchased from FACHB collection, Wuhan Aquatic Research Institure, Chinses Academy of Sciences) was cultured in a 320 L bubbling reactor (manufactured by Longfang Jiangchuan plexiglass Co. Ltd., φ300 mm×2 m) out-of-doors under a sunlight film. Modified SM medium (see Table 2) (pH 7.0-9.0 for the normal culture) was used. The culture condition included: a temperature of about 25 °C, a humidity of 60%-80%, and an illumination of 8000-20000 lux. […] Then air was sufficiently aerated, and pH was raised to 7.0-7.5 after 4 hours.
as §2
Chlorella sp. (purchased from FACHB collection, Wuhan Aquatic Research Institure, Chinses Academy of Sciences) was cultured in a 320 L bubbling reactor (manufactured by Longfang Jiangchuan plexiglass Co. Ltd., φ300 mm×2 m) out-of-doors under a sunlight film. Modified SM medium (see Table 2) (pH 7.0-9.0 for the normal culture) was used. The culture condition included: a temperature of about 25 °C, a humidity of 60%-80%, and an illumination of 8000-20000 lux. […] Then CO2 was aerated and pH was adjusted to 7.0-8.0.
Chlorella sp. (obtained from Jinan University) was cultured in a 320 L bubbling reactor (manufactured by Longfang Jiangchuan plexiglass Co. Ltd., φ300 mm×2 m) out-of-doors under a sunlight film (with a temperature of about 25 °C, a humidity of 60%-80%, and an illumination of 8000-20000 lux). Modified SM medium (see Table 2) was used. […] Then CO2 was aerated to saturation (pH 5.6) for 24 hours continuously. […] Then air was sufficiently aerated.

The next data set relates to Chlorococcum sp. The data set is described as follows: Growth of cultured algae after treatment, 60 L glass plate reactor. As to the method:
as §5
Chlorococcum sp. (obtained from Qingdao Marine Institute) was cultured (pH 8.0-9.0 for the normal culture) in a 60 L glass plate reactor (manufactured by Longfang Jiangchuan plexiglass Co. Ltd., OP=10 cm) under a sunlight film (with a temperature of about 25 °C, a humidity of 60%-80%, and an illumination of 8000-20000 lux). Modified BG11 medium (see Table 3) was used. […] CO2 was aerated continuously. […] Then air was sufficiently aerated, and pH was raised to 7.0-8.0 in 4 hours.
as §3, §4
Chlorococcum sp. (obtained from Qingdao Marine Institute) was cultured in a 60 L glass plate reactor (manufactured by Longfang Jiangchuan plexiglass Co. Ltd., OP=10 cm) under a sunlight film (with a temperature of about 25 °C, a humidity of 60%-80%, and an illumination of 8000-20000 lux) (pH 8.0-9.0 for the normal culture). Modified BG11 medium (see Table 3) was used. […] Then air was sufficiently aerated.
as §3
Chlorococcum sp. (obtained from Qingdao Marine Institute) was cultured in a 60 L glass plate reactor (manufactured by Longfang Jiangchuan plexiglass Co. Ltd., OP=10 cm) under a sunlight film (with a temperature of about 25 °C, a humidity of 60%-80%, and an illumination of 8000-20000 lux) (pH 8.0-9.0 for the normal culture). Modified BG11 medium (see Table 3) was used.

Regarding `O=C=O` [CO2, carbon dioxide], the “Oxyrrhis, result of microscope examination” value is on record as “no Amoeba or Oxyrrhis” in the data set on Oxyrrhis (Example 4, after 1M NaOH pH 11.0-11.8 1 h, CO2 to saturation (pH 5.6) 24 hours); “no Amoeba or Oxyrrhis” with Oxyrrhis (Example 7, after 1M NaOH pH 11.5-12.0 1 h, CO2 to saturation (about pH 5.6) 24 hour); “no Amoeba or Oxyrrhis” in the data set on Oxyrrhis (Example 10, after 1M NaOH pH 11.5-12.0 1 h, CO2 to saturation (about pH 5.8) 23 hour); “no Amoeba or Oxyrrhis” in the data set on Oxyrrhis (Example 12, after 1M ammonia pH 9.0 1 h, CO2 to saturation (pH 5.6) 24 hours); “no Amoeba or Oxyrrhis” in the data set on Oxyrrhis (Example 14, after 1M ammonia pH 9.0 1 h, CO2 to saturation (about pH 5.6) 24 hour); “no Amoeba or Oxyrrhis” with Oxyrrhis (Example 15, after 1M ammonia pH 10.0 1 h, CO2 to saturation (about pH 5.8) 23 hour). Also, the “growth of the algae” value in the data set with Chlorella sp. is recorded as “almost not affected”; in the data set with Chlorococcum sp. it was “rarely affected”. Also, in the data set with Chlorella sp., the “time until algae started to grow (FIG. 4)” value was “About 28 hours”. Further, the “time until algae started to grow after recovery of pH7.0 or above” value in the data set on Chlorella sp. (pH 7) came out at 24 hours; in the data set on Chlorococcum sp. (pH 7) it was 8 hours. The “time until algae resumed to grow after air aeration” value is given as “Twenty-four” in the data set with Chlorella sp. (pH 9) and “Eighteen” in the data set with Chlorococcum sp. (pH 9).
